# According to ChEMBL document CHEMBL1201862, “PubChem BioAssay data set” (2004):
# Calls of active or inactive are those of the source.
# How the values were obtained:
# [1] = T. cruzi growth inhibition in host cells, dose response, cell-based, plate reader, dry powder, set 2 (AID 652275); assay type: functional
# [2] = anti-trypanosomal activity in BESM host cells – imaging, CA-I/72 strain, bovine embryo skeletal muscle, dry powder, dose response (AID 651885); assay type: functional, cell-based
# [3] = Trypanosoma cruzi replication inhibitors in host cells – cell-based, plate reader, dry powder samples, dose response (AID 651845); assay type: functional
# [4] = BioA aminotransferase inhibition, coupled fluorescent readout – biochemical, coupled fluorescence displacement, 20-point, dry powder, dose response (AID 743357); assay type: functional
# [5] = SNU-C1 cell viability reduction, dose response, CellTiter-Glo luminescence (AID 1117323); assay type: functional, cell-based
# [6] = cytotoxicity toward HT-29 cells – cell-based, CellTiter-Glo luminescence, IC50, dose response (AID 1117330); assay type: functional
# [7] = cytotoxicity toward Colo320 cells – cell-based, CellTiter-Glo luminescence, IC50, dose response (AID 1117334); assay type: functional; conditions: COLO 320
# [8] = cytotoxicity toward HCT116 cells – cell-based, CellTiter-Glo luminescence, IC50, dose response (AID 1117332); assay type: functional; conditions: HCT-116
# [9] = HCT116 cell viability decrease, GSK3B pretreatment – CellTiter-Glo, IC50, dose response (AID 1117339); assay type: functional; conditions: HCT-116
# [10] = RKO cell viability reduction, dose response, CellTiter-Glo luminescence (AID 1117322); assay type: functional
# [11] = CellTiter-Glo luminescence survival assay, SW480 colon tumor line, concentration-response curve, half-maximal inhibitory concentration (AID 1117338); assay type: functional
# [12] = Reduced DLD-1 viability, concentration-response, CellTiter-Glo luminescence (AID 1117352); assay type: functional
# [13] = Dd2 malaria parasite growth inhibition potency – SYBR Green, dry powder samples, dose response (AID 1159566); assay type: functional, cell-based;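 also: potency for growth inhibition with lower SYBR green DNA signal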
# [14] = growth inhibition of yeast DHODH-expressing 3D7 parasites – SYBR Green, dry powder samples, dose response (AID 1159570); assay type: functional, cell-based;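 also: parasite growth measured after 72 hours of compound exposure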
# [15] = P. falciparum Dd2 growth inhibitors, dose response, SYBR Green, cherry-picked samples (AID 1159567); assay type: functional, cell-based
# [16] = growth inhibition of PfATP4-mutant resistant parasites – NITD609-resistant line, SYBR Green, dry powder, dose response (AID 1159571); assay type: functional, cell-based;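 also: parasites synchronized at ring stage by sorbitol before testing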
# [17] = toxicity to human hepatoma HepG2 cells – cell-based, cherry-picked samples, cytotoxicity control, dose response (AID 1159577); assay type: functional
# ELAV-like protein 1 = ELAV-like protein 1 (Homo sapiens, UniProt Q15717); experiment: Identify HuR specific inhibitors.; assay type: functional
# Cryptococcus neoformans [18] = experiment: Cryptococcus growth inhibition by alamar blue – cell lysis, cherry-picks, replicate tests, mechanism study for C. neoformans antifungal project, dose response (AID 686999); assay type: functional, organism-based
# Streptococcus = experiment: GAS UMAA2166 growth inhibition – luminescence, BacTiterGlo, counter-screen for streptokinase expression inhibitor project, dose response (AID 1915); assay type: functional, organism-based;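 also: potency for reduction of bacterial viability or growth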
# [19] = system: Streptococcus sp. 'group A'; experiment: Streptococcus pyogenes SK(-)GAS viability under kanamycin – luminescence, BacTiterGlo, confirmation, counter-screen for streptokinase expression inhibitor project, dose response (AID 1900); assay type: functional, organism-based
# [20] = viability loss in HEK293T cells – cell-based, ATP luminescence, dry powder, set 3, cytotoxicity control, dose response (AID 743131); assay type: functional; conditions: HEK293
# Cryptococcus neoformans [21] = experiment: PubChem AID 686997; assay type: functional, organism-based
# Streptokinase A = molecular target: T1, Streptokinase A (Streptococcus pyogenes serotype M1, UniProt P10520); experiment: viability-normalized secreted streptokinase activity reduction – plasminogen activation absorbance, OD405, dose response (AID 1914); assay type: functional, Streptococcus pyogenes M1 GAS;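 also: secreted streptokinase activity via plasminogen activation per viability signal from cell pellet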
# T1 sequence (P10520 whole entry): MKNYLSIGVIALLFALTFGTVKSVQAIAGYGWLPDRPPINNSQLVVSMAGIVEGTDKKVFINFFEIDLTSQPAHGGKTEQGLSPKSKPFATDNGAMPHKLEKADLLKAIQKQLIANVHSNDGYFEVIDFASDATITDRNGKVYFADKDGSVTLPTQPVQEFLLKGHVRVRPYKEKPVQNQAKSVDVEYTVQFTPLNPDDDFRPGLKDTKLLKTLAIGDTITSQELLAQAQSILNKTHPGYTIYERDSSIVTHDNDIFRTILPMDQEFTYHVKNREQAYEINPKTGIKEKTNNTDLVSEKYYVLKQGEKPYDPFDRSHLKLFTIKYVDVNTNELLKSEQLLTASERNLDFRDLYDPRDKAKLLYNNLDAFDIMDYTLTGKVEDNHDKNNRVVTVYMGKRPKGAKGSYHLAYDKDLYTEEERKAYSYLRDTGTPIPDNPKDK
# HeLa = experiment: viability loss in HeLa cells – cell-based, ATP luminescence, cherry-pick samples, cytotoxicity control, dose response (AID 687004); assay type: functional; conditions: Homo sapiens
# [22] = IC50 of insulin release inhibition, rat insulinoma INS-1E line, 5 mM glucose, cell-based (AID 1117331); assay type: functional
# [23] = Potency on glucagon-like peptide 1 release, dose-response in NCI-H716 cell line, half maximal inhibitory concentration (AID 1117344); assay type: functional, cell-based
# [24] = glucagon-like peptide-1 release potency in STC-1, concentration-response, half-maximal inhibitory concentration in the STC-1 line (AID 1117345); assay type: functional, cell-based
# Fibrinogen beta chain [25] = molecular target: T2, Fibrinogen beta chain (Homo sapiens, UniProt P02675); experiment: Fluorescence polarization-based biochemical high throughput dose response assay to identify inhibitors that disrupt the binding of a cyclic peptide (Tn7) to the fibrin proteolytic product D-Dimer and fragment E complex [DD(E )].
# Large T antigen = Large T antigen (Simian virus 40, UniProt P03070); assay type: functional, Betapolyomavirus macacae;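 also: Confirmatory-stage PubChem screen for compounds that inhibit SV40 T antigen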
# [26] = molecular target: T3, Tyrosyl-DNA phosphodiesterase 2 (Homo sapiens, UniProt O95551); experiment: potency against TDP2 phosphodiesterase activity – biochemical, epi absorbance, IC50, dose response (AID 743297)
# T3 sequence (O95551 whole entry): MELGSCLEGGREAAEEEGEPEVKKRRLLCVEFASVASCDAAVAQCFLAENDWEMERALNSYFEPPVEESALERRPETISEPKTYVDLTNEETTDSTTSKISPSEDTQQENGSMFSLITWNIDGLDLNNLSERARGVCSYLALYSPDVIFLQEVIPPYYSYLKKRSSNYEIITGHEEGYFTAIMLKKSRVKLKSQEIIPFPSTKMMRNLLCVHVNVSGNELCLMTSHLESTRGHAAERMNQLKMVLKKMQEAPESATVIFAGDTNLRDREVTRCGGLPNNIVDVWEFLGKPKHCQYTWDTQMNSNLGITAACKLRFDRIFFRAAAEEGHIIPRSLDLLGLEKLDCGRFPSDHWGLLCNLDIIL
# [27] = molecular target: E3 ubiquitin-protein ligase XIAP (Homo sapiens, UniProt P98170); experiment: Counter Screen using XIAP-Bir3 for Chemical Antagonists of Bir1/2 domains of IAP-family anti-apoptotic proteins. [Related pubchem assays (depositor defined):AID1018, AID1449, AID1514, AID1638, AID1749, AID1750, AID488957, AID488963]
# Fibrinogen beta chain [28] = molecular target: T2, Fibrinogen beta chain; experiment: Fluorescence polarization-based biochemical high throughput dose response assay to identify inhibitors that disrupt the binding of a cyclic peptide (Tn6) to the fibrin proteolytic product D-Dimer and fragment E complex [DD(E )].
# [29] = molecular target: T4, Histone-lysine N-methyltransferase NSD2 (Homo sapiens, UniProt O96028); assay type: biochemical
# T4 sequence (O96028 whole entry): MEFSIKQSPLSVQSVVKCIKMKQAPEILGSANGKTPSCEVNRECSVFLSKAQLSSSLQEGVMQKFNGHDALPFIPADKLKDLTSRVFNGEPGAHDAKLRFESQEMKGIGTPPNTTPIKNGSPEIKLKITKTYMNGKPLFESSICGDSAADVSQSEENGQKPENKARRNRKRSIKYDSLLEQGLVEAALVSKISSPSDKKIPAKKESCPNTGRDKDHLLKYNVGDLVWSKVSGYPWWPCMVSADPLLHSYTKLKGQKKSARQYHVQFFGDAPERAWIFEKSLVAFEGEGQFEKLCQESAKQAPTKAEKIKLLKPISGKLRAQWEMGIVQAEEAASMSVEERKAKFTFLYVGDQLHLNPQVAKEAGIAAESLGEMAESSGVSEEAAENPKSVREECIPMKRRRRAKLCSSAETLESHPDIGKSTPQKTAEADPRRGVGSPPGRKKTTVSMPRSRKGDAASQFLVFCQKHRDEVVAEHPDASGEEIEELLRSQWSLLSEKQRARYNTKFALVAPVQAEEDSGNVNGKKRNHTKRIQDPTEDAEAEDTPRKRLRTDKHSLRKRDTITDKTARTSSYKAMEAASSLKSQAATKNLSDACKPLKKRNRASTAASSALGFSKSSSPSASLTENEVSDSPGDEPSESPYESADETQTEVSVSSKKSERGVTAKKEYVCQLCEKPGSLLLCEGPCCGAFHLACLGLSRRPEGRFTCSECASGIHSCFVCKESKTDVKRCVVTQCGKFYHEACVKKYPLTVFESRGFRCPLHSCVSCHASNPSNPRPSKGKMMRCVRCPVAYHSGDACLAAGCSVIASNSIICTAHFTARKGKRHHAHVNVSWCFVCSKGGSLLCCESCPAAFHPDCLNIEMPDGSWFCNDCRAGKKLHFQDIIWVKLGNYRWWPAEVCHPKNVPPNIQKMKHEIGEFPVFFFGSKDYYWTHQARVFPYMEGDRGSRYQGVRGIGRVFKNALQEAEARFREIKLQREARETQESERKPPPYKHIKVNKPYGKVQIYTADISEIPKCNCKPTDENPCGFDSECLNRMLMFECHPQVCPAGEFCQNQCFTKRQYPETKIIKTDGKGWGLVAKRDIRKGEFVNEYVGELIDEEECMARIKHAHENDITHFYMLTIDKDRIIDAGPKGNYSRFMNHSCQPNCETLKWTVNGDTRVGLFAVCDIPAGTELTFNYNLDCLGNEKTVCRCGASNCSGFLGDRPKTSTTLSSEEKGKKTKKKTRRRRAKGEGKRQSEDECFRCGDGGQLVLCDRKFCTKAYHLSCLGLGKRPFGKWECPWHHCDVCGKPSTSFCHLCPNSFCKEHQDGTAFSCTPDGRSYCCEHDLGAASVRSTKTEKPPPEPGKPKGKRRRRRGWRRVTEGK
# T2 sequence (P02675 whole entry, the tested form may be a part): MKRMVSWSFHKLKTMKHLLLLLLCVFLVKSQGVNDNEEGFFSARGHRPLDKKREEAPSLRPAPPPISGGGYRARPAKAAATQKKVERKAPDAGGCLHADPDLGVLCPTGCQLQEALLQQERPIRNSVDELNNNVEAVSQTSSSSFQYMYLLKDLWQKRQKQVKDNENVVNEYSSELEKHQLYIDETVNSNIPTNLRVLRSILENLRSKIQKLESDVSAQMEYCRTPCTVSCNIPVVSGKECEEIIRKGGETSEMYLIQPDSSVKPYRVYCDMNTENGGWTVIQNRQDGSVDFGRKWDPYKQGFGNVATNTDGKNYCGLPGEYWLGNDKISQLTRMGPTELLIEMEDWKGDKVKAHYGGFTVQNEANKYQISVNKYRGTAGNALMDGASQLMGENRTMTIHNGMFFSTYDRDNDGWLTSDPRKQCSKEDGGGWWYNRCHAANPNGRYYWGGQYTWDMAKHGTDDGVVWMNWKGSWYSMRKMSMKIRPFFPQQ
# Chain of E3 ubiquitin-protein ligase XIAP (P98170 whole entry, the tested form may be a part): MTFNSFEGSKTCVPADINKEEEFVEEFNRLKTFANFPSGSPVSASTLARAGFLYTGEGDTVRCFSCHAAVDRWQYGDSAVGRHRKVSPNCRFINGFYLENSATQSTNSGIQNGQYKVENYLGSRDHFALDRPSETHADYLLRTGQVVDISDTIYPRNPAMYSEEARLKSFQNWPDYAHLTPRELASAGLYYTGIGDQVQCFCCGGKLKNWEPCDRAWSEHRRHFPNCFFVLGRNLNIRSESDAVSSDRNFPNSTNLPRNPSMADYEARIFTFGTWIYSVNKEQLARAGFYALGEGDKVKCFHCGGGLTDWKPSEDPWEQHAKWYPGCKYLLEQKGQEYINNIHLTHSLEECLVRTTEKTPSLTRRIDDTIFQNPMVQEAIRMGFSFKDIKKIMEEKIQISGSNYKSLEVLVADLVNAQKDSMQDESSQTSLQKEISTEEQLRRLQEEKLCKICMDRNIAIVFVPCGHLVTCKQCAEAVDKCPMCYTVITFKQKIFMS
# Chain of ELAV-like protein 1 (Q15717 whole entry): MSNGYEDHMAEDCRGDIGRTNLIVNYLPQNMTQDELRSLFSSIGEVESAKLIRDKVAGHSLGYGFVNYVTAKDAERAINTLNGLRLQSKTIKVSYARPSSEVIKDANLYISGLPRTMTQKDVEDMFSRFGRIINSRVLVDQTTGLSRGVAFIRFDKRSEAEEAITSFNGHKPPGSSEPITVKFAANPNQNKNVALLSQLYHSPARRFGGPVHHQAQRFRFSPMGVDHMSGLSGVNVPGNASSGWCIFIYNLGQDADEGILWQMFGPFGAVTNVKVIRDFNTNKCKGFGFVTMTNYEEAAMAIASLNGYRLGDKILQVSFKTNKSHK
# Chain of Large T antigen (P03070 whole entry): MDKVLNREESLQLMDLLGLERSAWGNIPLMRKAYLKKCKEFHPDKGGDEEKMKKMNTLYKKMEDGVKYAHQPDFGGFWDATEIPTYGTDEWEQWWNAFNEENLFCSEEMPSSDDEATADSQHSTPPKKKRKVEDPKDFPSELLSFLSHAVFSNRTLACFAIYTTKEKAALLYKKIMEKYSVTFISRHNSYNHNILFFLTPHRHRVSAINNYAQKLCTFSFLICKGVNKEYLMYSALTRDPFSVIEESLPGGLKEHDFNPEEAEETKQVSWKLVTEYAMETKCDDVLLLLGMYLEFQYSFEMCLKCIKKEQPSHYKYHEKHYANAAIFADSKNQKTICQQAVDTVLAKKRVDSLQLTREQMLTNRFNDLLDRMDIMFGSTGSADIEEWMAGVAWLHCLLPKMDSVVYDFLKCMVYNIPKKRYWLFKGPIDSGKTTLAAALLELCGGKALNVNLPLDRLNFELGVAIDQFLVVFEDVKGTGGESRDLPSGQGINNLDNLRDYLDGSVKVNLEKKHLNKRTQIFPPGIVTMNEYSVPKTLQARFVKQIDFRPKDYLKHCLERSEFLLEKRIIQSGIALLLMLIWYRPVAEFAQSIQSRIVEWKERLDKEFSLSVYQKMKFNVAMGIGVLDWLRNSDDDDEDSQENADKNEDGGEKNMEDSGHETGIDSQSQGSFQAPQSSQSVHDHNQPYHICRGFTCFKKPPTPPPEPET
smiles,measurement,setting,value
C[C@@H]1CN([C@@H](C)CO)C(=O)c2cccc(NC(=O)c3ccncc3)c2O[C@H]1CN(C)Cc1ccc2c(c1)OCO2,AC50,[1],0.017 µM (active)
same,IC50,[2],0.0565 µM (active)
same,AC50,[3],0.0571 µM (active)
COC(=O)c1ccc(N2CCN(C(=O)c3ccc4c(c3)OCO4)CC2)cc1,AC50,[4],12.4 µM (active)
CN1CCC(=C2c3ccccc3C=Cc3ccccc32)CC1 [CYPROHEPTADINE],IC50,[5],10.8 µM (inactive)
same,IC50,[6],> 20 µM (inactive)
same,IC50,[7],> 20 µM (inactive)
same,IC50,[8],> 20 µM (inactive)
same,IC50,[9],> 20 µM (inactive)
same,IC50,[10],11.3 µM (inactive)
same,IC50,[11],5.92 µM (inactive)
same,IC50,[12],> 20 µM (inactive)
CCC(=O)N1CCC2(CC1)CN(S(=O)(=O)c1ccccc1)[C@@H](CO)c1[nH]c3cc(OC)ccc3c12,AC50,[13],1.47 µM (active)
same,AC50,[14],1.31 µM (active)
same,AC50,[15],2.04 µM (active)
same,AC50,[16],0.961 µM (active)
Cc1cccc(S(=O)(=O)N2CCCCN3[C@@H](CO)[C@@H](c4ccc(C#CC(C)C)cc4)[C@@H]3C2)c1,AC50,[15],1.18 µM (active)
same,AC50,[17],15.1 µM (active)
O=C(O)C1=NN(c2cc(Cl)c(S(=O)(=O)O)cc2Cl)C(=O)C1,IC50,ELAV-like protein 1,16.7 µM (inactive)
Cc1ccc(OCCn2c(S)nc3ccccc32)c(C(C)C)c1,AC50,Cryptococcus neoformans [18],11.2 µM (active)
same,EC50,Streptococcus,17.2 µM (active)
same,EC50,[19],2.73 µM (active)
same,AC50,[20],10.3 µM (active)
same,AC50,Cryptococcus neoformans [21],20.7 µM (active)
same,EC50,Streptokinase A,15.2 µM (active)
same,AC50,HeLa,37.9 µM (active)
COc1ccc(/C=N/NC(=O)c2ccncc2)cc1OC [VERAZIDE],IC50,[22],> 33.3 µM (inactive)
same,IC50,[23],20 µM (inactive)
same,IC50,[24],> 40 µM (inactive)
O=C(O)CCCNc1cc(N2CCN(C(=O)c3ccco3)CC2)c2noc3c2c1C(=O)c1ccccc1-3,IC50,Fibrinogen beta chain [25],> 83.3 µM (inactive)
same,IC50,Large T antigen,> 100 µM (active)
same,EC50,Streptococcus,31.8 µM (active)
same,EC50,[19],5.52 µM (active)
same,IC50,[26],> 128 µM (inactive)
same,IC50,[27],> 20 µM (inactive)
same,EC50,Streptokinase A,> 150 µM (not active)
same,IC50,Fibrinogen beta chain [28],4.96 µM (active)
same,AC50,[29],14.8 µM (active)
